Tested on: not listed separately
Experiment: log P by HPLC (EEC-Directive 79/831 Annex V. A8)
Format: physicochemical
Conditions: gradient method, acetonitrile/0.1% aqueous phosphoric acid
Method: The log P values were determined according to EEC-Directive 79/831 Annex V. A8 by HPLC (gradient method, acetonitrile/0.1% aqueous phosphoric acid).
Work on `Cc1cccc(C)c1Oc1noc(=O)n1S(=O)(=O)c1c(C)noc1C` [Example 3] yielded a chromatographic logP of 3.54.
For `Cc1ccc(C(C)C)c(Oc2noc(=O)n2S(=O)(=O)c2c(C)noc2C)c1` [Example 4], the chromatographic logP was 4.19.
For `COC(=O)c1ccc(Oc2noc(=O)n2S(=O)(=O)c2c(C)noc2C)cc1` [Example 2], the chromatographic logP was 3.07.
For `Cc1ccc(Oc2noc(=O)n2S(=O)(=O)c2c(C)noc2C)c(C)c1` [Example 5], the chromatographic logP was 3.63.
Compound `Cc1ccccc1Oc1noc(=O)n1S(=O)(=O)c1c(C)noc1C` [Example 7] has a chromatographic logP of 3.28.
In the case of `Cc1noc(C)c1S(=O)(=O)n1c(Oc2ccc(Cl)cc2)noc1=O` [Example 8], the chromatographic logP is reported as 3.45.

Tested on: Phytophthora infestans
Experiment: whole plant or invertebrate
Format: in vivo, Phytophthora infestans (on tomato plants)
Conditions: in Solanum lycopersicum, 72 h, read-out: Efficacy in %
With `COC(=O)c1ccc(Oc2noc(=O)n2S(=O)(=O)c2c(C)noc2C)cc1` [drawing 39] the pest or weed control at 50 g/ha was 86%.
In the case of `Cc1cccc(C)c1Oc1noc(=O)n1S(=O)(=O)c1c(C)noc1C` [drawing 41], the pest or weed control at 50 g/ha is reported as 88%.
Compound `Cc1ccccc1Oc1noc(=O)n1S(=O)(=O)c1c(C)noc1C` [drawing 43] has a pest or weed control at 50 g/ha of 94%.
Compound `Cc1ccc(C(C)C)c(Oc2noc(=O)n2S(=O)(=O)c2c(C)noc2C)c1` [drawing 42] has a pest or weed control at 50 g/ha of 95%.
For `Cc1ccc(Oc2noc(=O)n2S(=O)(=O)c2c(C)noc2C)c(C)c1` [drawing 40], the pest or weed control at 50 g/ha was 94%.
Work on `Cc1cc(C)cc(Oc2noc(=O)n2S(=O)(=O)c2c(N)noc2C)c1` yielded a pest or weed control at 50 g/ha of 95%.
`Cc1ccc(Oc2noc(=O)n2S(=O)(=O)c2c(N)noc2C)cc1C` gave a pest or weed control at 50 g/ha of 95%.
In the case of `Cc1ccc(Oc2noc(=O)n2S(=O)(=O)c2c(C)noc2C)cc1C`, the pest or weed control at 50 g/ha is reported as 95%.
In the case of `Cc1cc(C)cc(Oc2noc(=O)n2S(=O)(=O)c2c(C)noc2C)c1`, the pest or weed control at 50 g/ha is reported as 96%.
`Cc1noc(C)c1S(=O)(=O)n1c(Oc2ccc(Cl)cc2)noc1=O` [drawing 44] gave a pest or weed control at 50 g/ha of 97%.
`Cc1ccc(C)c(Oc2noc(=O)n2S(=O)(=O)c2c(C)noc2C)c1` showed a pest or weed control at 50 g/ha of 94%.
For `COc1ccc(Oc2noc(=O)n2S(=O)(=O)c2c(N)noc2C)cc1`, the pest or weed control at 50 g/ha was 91%.
For `Cc1ccc(C)c(Oc2noc(=O)n2S(=O)(=O)c2c(N)noc2C)c1`, the pest or weed control at 50 g/ha was 96%.
Compound `Cc1noc(C)c1S(=O)(=O)n1c(N(C)C2CCCCC2)noc1=O` has a pest or weed control at 50 g/ha of 85%.

— patent US6136830A, “Sulphonyloxadiazolones and their use as microbicides” (Bayer Aktiengesellschaft, priority 1997, dated 2000)
